# pKd: −log10 of the molar value. Where two headings read alike, the source gives them in different places.
# Assays:
# R2R3 (V287I) tau peptide [1] = target: T1, R2R3 (V287I) tau peptide (Homo sapiens, UniProt P10636, V604I); assay: ThT aggregation assay of monomeric R2R3 (V287I) peptide; type: biochemical; conditions: for ThT-stained aggregates, confocal imaging: R2R3 V287I, compound 10 μM, end of ThT assay
# Protocol: The aggregation kinetics of tau peptides were monitored using a ThT assay. A 40 μL reaction mixture containing 15 μM ThT (Sigma‐Aldrich, Cat. # T3516‐5G) and 50 μM peptide in the absence (control) or presence of 0.1 μM, 1 μM, and 10 μM PUR or OLC was prepared on ice in aggregation buffer (20 mM Tris [pH 7.4], 100 mM NaCl, 1 mM ethylenediaminetetraacetic acid [EDTA]) containing 5 μM heparin (Sigma‐Aldrich, Cat. #H4784). dithiothreitol (DTT) was excluded to avoid its differential effects on the aggregation kinetics of tau peptides containing Cys291 or Cys322 and to prevent peroxide generation by redox‐active compounds like PUR, which can lead to oxidative artifacts and false‐positive inhibition signals, as reported in our previous study (Annadurai, Malina, Salmona, et al., [2022]). This mixture was then dispensed into a clear‐bottom, black 384‐well ViewPlate (Revvity, Waltham, MA, United States; Part # 6007460) and sealed with a TopSealA‐PLUS (Revvity) to prevent evaporation.
# Aggregation was monitored using EnSpire Multimode Plate Reader (Revvity) at 37°C with constant agitation (1000 rpm). To minimize condensation, the upper heater temperature was set to 2°C higher than the lower heater temperature. ThT fluorescence (ThT—λ ex: 460–490 nm and λem: 500–550 nm) was recorded every 5–10 min for 48 h.
# ThT fluorescence curves were fitted to a sigmoidal function in GraphPad Prism (version 10, San Diego, CA, USA) using the following equation:
# Y=Top/1+expV50–X/Slope , where Y is the ThT fluorescence intensity, X is time (h), Top is the maximum fluorescence intensity, V50 is the time to reach 50% of Top, and Slope describes the steepness of the aggregation transition. Baseline fluorescence at the start of the measurements was relatively low across samples and was not separately fitted. In samples showing early increases in fluorescence, the aggregation trajectory was modeled directly without introducing an independent baseline parameter.
# The V50 value obtained from each replicate was used as the aggregation t 1/2 for statistical analysis.
# To evaluate the effect of compounds on the extent of aggregation, the AUC was calculated for each replicate ThT fluorescence curve using GraphPad Prism. AUC values were then normalized to the mean AUC of the untreated control group and expressed as “aggregation (% of control),” serving as an indirect and comparative measure of fibril formation.
# Figure S11. Confocal imaging of ThT-stained aggregates formed in the presence of PUR and OLC (corresponding to Figure 3). […] ThT fluorescence was acquired using a Yokogawa Cell Voyager 7000S high-content imaging system equipped with a 20× objective (Ex: 460–490 nm, Em: 500–550 nm) and analyzed with Signals Image Artist (Revvity). […]
# R2R3 (N279K) tau peptide = R2R3 (N279K) tau peptide (Homo sapiens, UniProt P10636, N596K); assay: Atomic force microscopy of R2R3 (N279K) aggregates; type: biochemical; conditions: compound 10 μM, 48 h
# Protocol: (§1) Aggregates collected after 48 h of aggregation were processed for AFM analysis as described previously (Annadurai, Malina, Malohlava, et al., [2022]).
# R2R3 (WT) tau peptide = target: T2, R2R3 (WT) tau peptide (Homo sapiens, UniProt P10636); assay: Atomic force microscopy of R2R3 (WT) aggregates; type: biochemical; conditions: compound 10 μM, 48 h
# T2 construct: Peptides spanning R2R3—including PHF6 and PHF6*; purchased ProteoGenix (Schiltigheim, France); host or cells: chemical synthesis (custom peptide)
# Protocol: as §1
# R2R3 (V287I) tau peptide [2] = target: T1, R2R3 (V287I) tau peptide; assay: SPR titration cycle kinetics, immobilized R2R3 (V287I) peptide; type: binding
# Protocol: SPR experiments were conducted using the Sierra® SPR‐24 Pro system (Bruker Daltonics, Bremen, Germany), featuring a gold‐coated microfluidic array (24 detection spots, 3 × 8 format). Data acquisition and kinetic analysis were performed using SPR Analyzer 4 software.
# All experiments were conducted at 25°C using PBS (pH 7.4) supplemented with 0.05% Tween‐20 and 5% DMSO as the running buffer to ensure assay reproducibility. Assay components, including 96‐well microtiter plates (Part # 1862984; Burker) and Microplate and Reservoir Sealer (Part #1862985; Burker), were used for sample handling and were compatible with the Sierra SPR®‐24 Pro system (Bruker Daltonics, Billerica, MA, USA).
# WT and mutant (P301L, V287I, and N279K) tau peptides were dissolved in 10 mM sodium acetate buffer (pH 5.0; Burker) and immobilized onto High‐Capacity Amine Sensor Surfaces (Part #1862614; Bruker) using the Amine Coupling Kit (Part #1862634; Bruker). The sensor surface was preconditioned with a Surface Elution Buffer (Part #1862656; Bruker Daltonics) and 0.1M HCl to remove contaminants and improve binding specificity.
# The surface was activated using 400 mM 1‐ethyl‐3‐(3‐dimethylaminopropyl) carbodiimide (Burker) and 50 mM N‐hydroxysuccinimide (Burker), enabling covalent attachment of tau peptides. Unreacted binding sites were blocked with 1M ethanolamine‐HCl (pH 8.5; Burker) to minimize nonspecific interactions. For each experiment, specific sensor spots (A/B/C) on channels 1–8 were designated for tau‐analyte interactions, with corresponding reference spots on the same channel for baseline correction. DMSO calibration solutions (4.6%, 4.8%, 5%, 5.2%, and 5.4%) were prepared for double referencing to compensate for DMSO solvent effects.
# PUR and OLC were prepared in PBS (pH 7.4) supplemented with 0.05% Tween‐20 and 5% DMSO. Compound interactions with tau peptides were pre‐screened using a concentration range of 1–100 μM, and subsequent binding kinetics were evaluated at optimized concentrations. For kinetic studies, PUR was tested at […], while OLC was tested at 25–100 μM using two‐fold serial dilutions. Each analyte was sequentially injected, and association and dissociation phases were monitored to determine kinetic parameters.
# SPR binding kinetics were assessed using the titration cycle kinetics (TCK) assay, which included consecutive association phases followed by a single dissociation phase. Pre‐assay simulations using the Kinetic Simulator feature of SPR Analyzer 4 software were used to optimize analyte concentration ranges and association/dissociation times. A reference blank injection was included for double referencing, and a single dissociation curve was recorded for the highest analyte concentration.
# Sensorgrams were analyzed using the Kinetic Titration model, which was integrated into the global kinetic fitting model of the SPR Analyzer 4 software. This approach allowed for baseline correction and improved the reliability of kinetic parameters, including the Kon, Koff, and KD.
# TCK‐derived kinetic parameters were compared across multiple runs and confirmed using Multi Injection Cycle Kinetics to validate reproducibility and accuracy.
# T1 sequence (P10636 592-653 V604I): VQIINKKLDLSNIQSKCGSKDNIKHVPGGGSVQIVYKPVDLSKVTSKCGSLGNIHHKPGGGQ
# T2 sequence (P10636 592-653 limits assumed): as the sequence (P10636 592-653 V604I) above, with I13V counted along it
# Chain of R2R3 (N279K) tau peptide (P10636 592-653 N596K): as the sequence (P10636 592-653 V604I) above, with N5K, I13V counted along it
Compound,"aggregation (% of control), AUC of ThT fluorescence (R2R3 (V287I) tau peptide [1]; R2R3 V287I 50 μM, compound 0.1 μM)","ThT-stained aggregates, confocal imaging (R2R3 (V287I) tau peptide [1])",AFM morphology of aggregates (R2R3 (N279K) tau peptide),AFM morphology of aggregates (R2R3 (WT) tau peptide),"Kon (R2R3 (V287I) tau peptide [2]; SPR, R2R3 V287I)","koff (R2R3 (V287I) tau peptide [2]; SPR, R2R3 V287I)","pKd (R2R3 (V287I) tau peptide [2]; SPR, R2R3 V287I peptide immobilized, 25°C, PBS pH 7.4, read-out: KD)","remaining activity at 0.1 µM (R2R3 (V287I) tau peptide [1]; R2R3 V287I 50 μM, compound 0.1 μM, read-out: aggregation (% of control), AUC of ThT fluorescence)",pKd (R2R3 (V287I) tau peptide [2]),"kon (R2R3 (V287I) tau peptide [2]; SPR, R2R3 V287I)","koff (R2R3 (V287I) tau peptide [2]; SPR, R2R3 V287I, read-out: Koff)"
"C/C=C(/C=O)[C@@H](CC=O)CC(=O)OCCc1ccc(O)cc1 [OLC, oleocanthal]",71%,marked reduction in ThT signal,no fibrillar or aggregated structures were detected,"shorter, fragmented fibrils",42.24 M⁻¹ s⁻¹,8.69e-05 s⁻¹,5.69,–,–,–,–
"O=C1c2ccccc2C(=O)c2c(O)c(O)cc(O)c21 [PUR, purpurin]",–,marked reduction in ThT signal,no fibrillar or aggregated structures were detected,"shorter, fragmented fibrils",–,–,–,44%,5.33,42.1 M⁻¹ s⁻¹,0.000199 s⁻¹

# Source: publication PMC12381781, “Structural and functional insights into the selective inhibition of mutant tau aggregation by purpurin and oleocanthal in frontotemporal dementia” (Protein Science : A Publication of the Protein Society, 2025)
